# In patent publication US20080125498A1, “TREATMENT OF NEURODEGENERATIVE DISEASES AND CONDITIONS USING PAR1 ANTAGONISTS” (priority 2001, published 2008):
# Ends that are not written are not given here.
# What was measured:
# [1] = system: NMDA receptor; assay: Whole cell patch recording of NMDA-evoked currents in hippocampal slice CA1 pyramidal neurons; assay type: cell-based, rat
# [2] = system: NR1 subunit; assay: NMDA receptor subunit immunoblots of thrombin-treated brain membranes; assay type: biochemical, rat; conditions: striatal membranes, 100 ATU hirudin
# Method: NMDA receptor subunit immunoblots. Human embryonic kidney (HEK) cells were maintained in DMEM supplemented with 0.5 mM glutamine, 1 mM pyruvate, penicillin, streptomycin, and 10% fetal bovine serum in a humidified environment with 5% CO2, and transfected with 1 microgram/ml of NR1 or 1:2 microgram/ml NR1:NR2 cDNA. Cells were washed in ice-cold HEPES buffered saline (HBS), scraped on ice, and membranes isolated by centrifugation at 12,000×g. […] Adult rat brain regions were dissected, frozen in liquid nitrogen, homogenized in ice-cold HEPES buffered saline (HBS), centrifuged, and stored at −20° C. Membranes were resuspended in HBS and treated with thrombin or buffer for 30 min at 37° C. Samples were centrifuged, and the membrane pellet resuspended in 2% sodium dodecylsulphate (SDS), 62.5 mM Tris, 10% glycerol, 5% beta-mercaptoethanol, 0.05% bromophenol blue (pH 6.8); some samples were treated with IOU DNase for 10 min at 37° C. SDS/polyacrylamide gel electrophoresis (SDS/PAGE) and protein blotting to Immobilon-P membranes was performed as described (Lau and Huganir, Differential tyrosine phosphorylation of N-methyl-D-aspartate receptor subunits. J Biol Chem 270: 20036-20041, 1995). Membranes were blocked for 30 min in 0.2 M Tris base, 1.37 M NaCl, pH 7.4, containing 5% nonfat dry milk, and incubated overnight at 4° C. in primary antibodies: NR1 mAb54.1 (gift from Dr. S. Heinemann, Salk Institute, La Jolla Calif.), NR1 alt-C-terminal (Upstate Biotechnology, Lake Placid, N.Y.), NR2A C-terminal (Chemicon, Temecula, Calif.), or NR2B C-terminal (Upstate Biotechnology). Membranes were washed 3×, and incubated with HRP-conjugated goat anti-mouse or goat anti-rabbit antibodies (1:10,000), washed 3×, and developed using enhanced chemiluminescence. The percent of receptor cleaved by thrombin was determined using densitometry.
# [3] = system: cortical astrocytes; assay: Astrocyte proliferation by BrdU incorporation; assay type: cell-based, mouse; conditions: astrocyte cultures from wild type mice, 3 or 30 micromolar, 24 hours
# Method: Cortical astrocytes from wild type and PAR1−/− knockout mice were either untreated (control) or treated for 24 hours with a 3 or 30 micromolar concentration of the peptide TFLLR-NH2 (SEQ ID NO: 1), which selectively activates PAR1. Cells were pulse-labeled with BrdU for the final 2 hours of culture.
# [4] = system: PAR1; assay: Free intracellular calcium in cultured astrocytes (Fluo-3 AM); assay type: cell-based, mouse
# [5] = system: PAR1; assay: PI hydrolysis in hippocampal slices; assay type: cell-based, mouse; conditions: wild type hippocampus / hippocampal slices
# Excerpt: PAR1 is a seven transmembrane G-protein coupled receptor that stimulates G-alpha-q to initiate phosphatidyl inositol (PI) hydrolysis. To ensure that PAR1 is functional in regions of the brain that are subject to ischemic damage in the mouse transient focal ischemia model, we tested the ability of several activators of PAR1 to initiate PI hydrolysis (Chung et al., 1997) in the hippocampus and striatum.
# Since tPA activates plasminogen to form plasmin, we tested whether exogenously applied tPA could activate endogenous plasminogen in brain slices to form plasmin and activate PAR1.
# [6] = system: PAR1; assay type: cell-based, rat
# [7] = cultured astrocytes from PAR1-/- knockout mice
# [8] = cultured astrocytes from wild type mice
compound,measurement,setting,value
hirudin [reference compound],potentiation by thrombin of NMDA responses in presence of hirudin,"[1]; 3 U/ml thrombin + 100 ATU hirudin, average potentiation 12-19 min post treatment, n=5",0.96±0.23 fold
same,block of NR1 cleavage by 30 nM thrombin,[2],blocked cleavage
TFLLR-NH2 [specific PAR1 agonist peptide],number of BrdU-positive cells,[3],increases the number of BrdU-positive cells
same,number of BrdU-positive cells,[3]; listed as TFLLR,can stimulate astrocyte proliferation
same,free intracellular calcium,[4]; [7],does not increase free intracellular calcium
same,free intracellular calcium,[4]; [8],increases free intracellular calcium
same,PI hydrolysis,[5],increased PI hydrolysis
Nc1ncnc2c1ncn2[C@@H]1O[C@H](COP(=O)(O)OP(=O)(O)OP(=O)(O)O)[C@@H](O)[C@H]1O [ATP],free intracellular calcium,[4]; [7],increases free intracellular calcium
same,free intracellular calcium,[4]; [8],increases free intracellular calcium
"NC(N)=NCCC[C@H](NC(=O)[C@@H]1CCCN1C(=O)[C@H](N)Cc1ccccc1)C(=O)CCl [PPACK, D-Phe-Pro-Arg-chloromethylketone]",response magnitude to thrombin (F/Fo) with PPACK,[6],1.1±0.04 fold
bisindolylmaleimide [reference compound],potentiation of NMDA receptor currents by thrombin in presence of BIS,"[1]; BIS 10 microM in ACSF, 30 nM (3 U/ml) thrombin, n=10",1.20±0.13 fold
same,NMDA responses during preapplication of BIS,[1]; BIS alone,unchanged
